Kinetic mode data for two compounds are collected here from PMC4945539 (Mycobiology, 2016).

For this assay, the target named is neuraminidase. Description: Inhibition kinetics. Type of assay: biochemical, influenza virus. The following applies: decrease in Vmax while Km remained stable.

Consider `CC1=CC(=O)C2(O1)C(c1cc3oc(=O)c4cc(O)c(O)cc4c3c(=O)o1)=Cc1cc(O)c(O)cc12` (centres unmarked) [compound 1, phelligridin E], for which the Kinetic mode result was “noncompetitive”. The value for `O=C1C=C(/C=C/c2ccc(O)c(O)c2)OC12C(c1cc3oc(=O)c4cc(O)c(O)cc4c3c(=O)o1)=Cc1cc(O)c(O)cc12` (centres unmarked) [compound 2, phelligridin G] was “noncompetitive”.
